Molecules are shown by their SMILES. Entries after “also recorded” stand apart in the source; their conditions may differ.

Data on 2 compounds can be found in patent US20080096971A1, “Treatment of Inflammatory Disorders and Pain” (priority 2004, published 2008).

Assay [1] has as its system Guinea-pig trachea ring preparations (beta2 agonism). In words: Beta2 Agonism Functional Assay (carbachol-contracted trachea rings). The format is cell-based. The note with it: for beta2 agonist activity (in words): guinea-pig trachea, formoterol positive control. How it is done: Beta2 Agonism Functional Assay
Guinea-pig trachea ring preparations were suspended in Kreb's solution containing indomethacin. After 15 minutes stabilisation, the preparations were repeated contracted using carbachol and simultaneously treated with increasing cumulative doses test compounds (0.1 nM to 0.1 μM). Beta2 agonism for each test compound was determined by its dose-dependant inhibition of carbachol-stimulated tracheal muscle twitch.

In assay [2] the test system is Serum TNFα and IL-10 levels. In words: LPS Mouse Assay. The class given is in vivo, Balb C ByJ mice. To be noted: LPS 1 mg/kg i.p., serum 2 hours after challenge, 0.3 and 1 mg/kg p.o. for (S)-clenbuterol. How it is done: 7 week old Balb C ByJ mice (24-28 g) were administered, either by i.p. (5 ml/kg) or oral (10 ml/kg) administration, with vehicle or test article. 30 minutes later these animals were challenged with an intraperitoneal injection of 1 mg/kg LPS. 2 hours after LPS challenge blood samples were collected under light isoflurane anaesthesia into normal tubes by retro-orbital puncture. Samples were allowed to clot at room temperature and then spun at 6000 g for 3 min at 4° C. Serum was stored at −20° C. until use. Serum TNFα and IL-10 levels were analysed in duplicate by ELISA technique.

In assay [3] the test system is male Wistar rats (carrageenan-injected right hind paw). In words: Carrageenan Paw Assay. The class given is in vivo. To be noted: doses of 0.3, 1 and 3 mg/kg oral; 1-5 hours after carrageenan. As to the method: Fasted (18 hour) male Wistar rats (105-130 g) were weighed and a basal mercury plethysmometer reading was taken of the right hind paw by submerging the paw in the mercury up to the tibiotarsal joint. Subsequently, vehicles, reference items and test articles were administered by oral gavage (10 ml/kg). Half an hour after treatment 0.1 ml of 2% carrageenan in 0.9% saline was injected into the subplanatar area of the right hind paw. The right paw was measured again with the plethysmometer at 1, 2, 3, 4 and 5 hours after carrageenan administration.
For orientation: The carrageenan paw model is a standard test of acute inflammation.

Assay [4] deals with Male Wistar rats (Freund's adjuvant). In words: Rat Adjuvant Assay. The format is in vivo. The note with it: oral once a day from day 11; (S)-clenbuterol at 0.3, 1 and 3 mg/kg/day. How it is done: Male Wistar rats (180 to 200 g) were inoculated by subplantar injection of Freund's adjuvant (suspension of Mycobacterium butyricum in mineral oil) into the right paw at day 0. Sham inoculations were injected in the same way with 0.9% saline in matched Male Wistar rats. On day 2 animals were weighed. On days 3, 4, 7, 9 and 11 animals were weighed and both their right and left hind paws were measure by plethsymometry by submerging the paw up to the tibiotarsal joint. On day 11, rats with left hind paw volumes increased by 20% were selected for continuance in the study. On the same day continuance rats were administered test article orally (10 ml/kg in distilled water) and from then on once a day until the completion of the study. Left and right hind paw volumes were measured on days 11, 14, 15, 16, 18 and 21.

Assay [5] relates to male DBA1 mice (collagen II induced arthritis). In words: Collagen II-Induced Arthritis Assay. The format is in vivo. To be noted: doses of 0.3, 1 and 3 mg/kg, from day 21. How it is done: Collagen II-Induced Arthritis Assay
6 to 8 week old male DBA1 mice were immunised with 0.1 ml intradermal (tail) injection of bovine type II collagen emulsified in Freund's complete adjuvant (day 0). At day 21 a booster collagen (intraperitoneal) inoculation was given, in PBS. Simultaneously, administration of test compound was given by the predetermined route of administration and delivery frequency. In addition, day 21 commenced observation of clinical signs, body weights and arthritis reaction scores. Arthritis score was assessed by the summation of all four paws scored for signs of arthritis development.

Take `CC(C)(C)NC[C@H](O)c1cc(Cl)c(N)c(Cl)c1` [(R)-Clenbuterol]: the “beta2 agonist activity (in words)” value in assay [1] is listed as “little such beta2 agonist activity”; in assay [1] (listed as (R)-clenbuterol), “distinct beta2 agonism”. Further, in assay [2], the “immunomodulatory activity (serum TNFα and IL-10 after LPS)” value was “significant activity”.
Regarding `CC(C)(C)NC[C@@H](O)c1cc(Cl)c(N)c(Cl)c1` [(S)-Clenbuterol, (S)-(+)-clenbuterol], the “inhibition of carbachol-stimulated tracheal muscle twitch” value in assay [1] (from −10 to −7 log M, cumulative doses) is recorded as “up to 75%”. Moreover, in assay [1], the “beta2 agonist activity (in words)” value is reported as “a little lower than that caused by formoterol”. Moreover, the figures for the “immunomodulatory activity (serum TNFα and IL-10 after LPS)” value in assay [2] and in assay [2] (listed as (S)-clenbuterol) were “significant activity” and “profound immunomodulatory profile; also recorded: less than (R)-clenbuterol”, respectively. The “anti-inflammatory activity (paw volume)” value in assay [3] is “strong and dose-dependent anti-inflammatory activity”. The “anti-inflammatory effect (hind paw volume)” value in assay [4] is “clear but non-dose-related anti-inflammatory effect”. In addition, the “anti-inflammatory effect (arthritis score)” value in assay [5] is “clear but inverse dose-related anti-inflammatory effect”.
